How the values were obtained:
PDGFRβ = target: T1, PDGFRβ (Homo sapiens, UniProt P09619); experiment: PDGFRβ cell-based assay (phospho-PDGFRβ ELISA, transfected CHO cells); details: compound at 100 nM, read-out: % PDGFRβ kinase activity remains
T1 construct: expressed in transfected cells; host or cells: CHO cells, pcDNA3.1 plasmid
How it was run: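 CHO cells transiently transfected with full-length human PDGFRβ, serum-starved overnight in DMEM, then treated 2 h with compound (0.5–500 nM) before 20% FBS stimulation. Lysates of ~5×10^5 cells analysed by sandwich ELISA for phospho- and total PDGFRβ with streptavidin-HRP chemiluminescent detection.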

EPHA2 = target: T2, EPHA2 (Homo sapiens, UniProt P29317); experiment: KINOMEscan competition binding assay, EPHA2; details: compound at 100 nM; lower number indicates stronger hit
T2 construct: purchased KINOMEscan service (Ambit Biosciences, San Diego)
T2 sequence (P29317 24-976): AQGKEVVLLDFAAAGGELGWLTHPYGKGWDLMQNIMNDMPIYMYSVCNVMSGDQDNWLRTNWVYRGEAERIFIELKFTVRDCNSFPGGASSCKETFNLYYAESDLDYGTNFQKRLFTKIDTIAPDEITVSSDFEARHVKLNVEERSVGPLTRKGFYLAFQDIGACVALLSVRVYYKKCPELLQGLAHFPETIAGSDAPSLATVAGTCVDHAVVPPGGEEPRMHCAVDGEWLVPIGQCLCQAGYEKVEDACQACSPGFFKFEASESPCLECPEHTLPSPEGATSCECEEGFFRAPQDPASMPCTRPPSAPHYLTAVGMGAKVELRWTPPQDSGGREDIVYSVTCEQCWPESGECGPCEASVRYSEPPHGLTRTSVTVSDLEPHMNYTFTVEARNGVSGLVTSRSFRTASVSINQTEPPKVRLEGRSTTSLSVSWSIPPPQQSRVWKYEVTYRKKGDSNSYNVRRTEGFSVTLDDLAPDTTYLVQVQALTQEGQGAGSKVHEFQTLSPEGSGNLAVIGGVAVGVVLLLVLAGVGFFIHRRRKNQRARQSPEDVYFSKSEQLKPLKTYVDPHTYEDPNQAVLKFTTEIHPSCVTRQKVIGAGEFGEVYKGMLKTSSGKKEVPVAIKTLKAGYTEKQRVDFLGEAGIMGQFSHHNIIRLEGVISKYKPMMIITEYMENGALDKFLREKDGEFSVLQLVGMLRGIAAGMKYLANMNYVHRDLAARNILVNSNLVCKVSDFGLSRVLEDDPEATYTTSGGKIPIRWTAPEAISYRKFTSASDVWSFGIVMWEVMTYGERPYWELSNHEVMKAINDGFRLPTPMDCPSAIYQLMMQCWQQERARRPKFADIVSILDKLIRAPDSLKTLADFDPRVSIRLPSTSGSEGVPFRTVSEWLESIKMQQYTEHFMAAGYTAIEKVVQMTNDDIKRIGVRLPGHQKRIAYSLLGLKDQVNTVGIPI
Experimental: A standard competition binding assay can be used to test the ability of a compound of this invention on competing with both intended and unintended kinases in vitro. To screen a compound against a large number of human kinases, a competition binding assay with an active-site dependent binding technology was performed by KINOMEscan service (Ambit Biosciences, San Diego, Cal., USA). Three components were combined in this assay—DNA-tagged kinase, immobilized ligand, and the test compound. The ability of the test compound to compete with the immobilized ligand was measured by quantitative PCR of the DNA of the DNA tag. A number of the compounds of this invention were screened at the concentration of 100 nM by this binding assay, and the results were reported as “% Ctrl,” and the lower number indicates stronger “hit” in this matrix.

HT-29 human colon cancer = experiment: In vivo anti-tumor efficacy, HT-29 xenograft; details: Colon cancer HT-29, nu/nu Balb/c mice, 50 mg/kg oral once per day, n = 2 × 3
Experimental: Female (nu/nu) Balb/c athymic mice at 4-6 weeks of age were injected subcutaneously (s.c.) with MDA-MB-231 human breast cancer cells, A549 human non-small cell lung cancer cells, U87-MG human glioblastoma cells, PC-3 human prostate cancer cells, HT-29 human colon cancer, BEL-7404 human hepatocellular carcinoma, or MKN-45 human gastric cancer cells (ATCC, 5×10^6 cells suspended in 100 μl DMEM medium). Treatment was initiated after the tumor mass grown from s.c. implanted tumor cells reached a median volume of 200-400 mm^3. Mice were randomized into groups with three in each group for small-sample efficacy tests such that the median tumor volume is nearly equal among all groups. […] Tumor volumes were assessed at least twice weekly by caliper measurement from the start of treatment. Tumor volume was calculated using the formula ½×L×W^2 (L: length of tumor's long axis, W: length of tumor's short axis). […] The efficacy of compounds in reducing tumor growth was assessed by the index Tumor Growth Inhibition (TGI). TGI for a given treatment period was calculated using the group mean tumor volumes according to the formula: TGI=100×(VVehicle—group−VTreatment—group)÷VVehicle—group wherein VVehicle—group represents the mean tumor volume for the group treated with vehicle and VTreatment—group represents the mean tumor volume of the group treated with a compound.

T1 sequence (P09619 33-1106, species assumed): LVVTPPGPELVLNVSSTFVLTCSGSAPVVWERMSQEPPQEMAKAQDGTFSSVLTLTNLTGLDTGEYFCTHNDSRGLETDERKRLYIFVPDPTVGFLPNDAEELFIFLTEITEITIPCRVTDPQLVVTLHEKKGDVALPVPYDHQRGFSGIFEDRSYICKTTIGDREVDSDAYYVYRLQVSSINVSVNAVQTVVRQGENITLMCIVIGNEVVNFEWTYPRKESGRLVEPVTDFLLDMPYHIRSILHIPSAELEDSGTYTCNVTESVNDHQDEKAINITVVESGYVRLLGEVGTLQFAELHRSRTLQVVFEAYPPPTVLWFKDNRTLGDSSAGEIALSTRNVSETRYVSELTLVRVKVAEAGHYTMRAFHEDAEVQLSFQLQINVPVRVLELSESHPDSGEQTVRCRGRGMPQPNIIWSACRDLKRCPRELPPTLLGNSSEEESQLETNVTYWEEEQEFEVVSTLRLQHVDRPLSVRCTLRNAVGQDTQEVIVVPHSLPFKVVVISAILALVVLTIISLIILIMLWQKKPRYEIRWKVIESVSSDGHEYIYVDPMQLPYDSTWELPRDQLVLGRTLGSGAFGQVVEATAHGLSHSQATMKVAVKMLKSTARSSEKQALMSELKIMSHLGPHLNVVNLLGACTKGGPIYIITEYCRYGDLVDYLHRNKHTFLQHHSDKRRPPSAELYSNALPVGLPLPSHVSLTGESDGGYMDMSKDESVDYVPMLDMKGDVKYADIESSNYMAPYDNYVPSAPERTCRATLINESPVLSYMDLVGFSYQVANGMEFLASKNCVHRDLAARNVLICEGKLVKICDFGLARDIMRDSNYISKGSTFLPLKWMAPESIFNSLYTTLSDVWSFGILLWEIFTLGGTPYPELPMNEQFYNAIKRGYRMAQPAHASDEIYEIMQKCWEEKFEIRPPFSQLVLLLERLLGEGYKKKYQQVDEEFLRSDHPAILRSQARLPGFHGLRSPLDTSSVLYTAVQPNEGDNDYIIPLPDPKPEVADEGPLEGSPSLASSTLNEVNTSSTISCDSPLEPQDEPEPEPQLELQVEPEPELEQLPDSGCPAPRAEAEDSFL

remaining activity at 0.1 µM (PDGFRβ) [%] | EPHA2 % Ctrl (EPHA2) [% Ctrl] | Compound | Tumor Growth Inhibition (TGI) (HT-29 human colon cancer)
≥ 70 |  | Cl.O=C(Nc1cccc(C(F)(F)F)c1)Nc1cccc2c1ccn2Cc1ccnc2[nH]ccc12 [Example 51, 1-(3-Trifluoromethylphenyl)-3-[1-(1H-pyrrolo[2,3-b]pyridin-4-ylmethyl)-1H-indol-4-yl]urea hydrochloride] | 
 | 12 | Cl.O=C(Nc1cc(Cl)ccc1F)Nc1cccc2c1ccn2Cc1ccnc2[nH]ccc12 [Example 56, 1-(2-Fluoro-5-chlorophenyl)-3-[1-(1H-pyrrolo[2,3-b]pyridin-4-ylmethyl)-1H-indol-4-yl]urea hydrochloride] | A (the TGI is greater or equal to 50%)
